# Target: Wild type FGFR2 (Homo sapiens (Human), UniProt P21802)
# Assay: FGFR2 kinase assay (fluorescence-based microfluidic mobility shift assay)
# Format: biochemical
# Settings: not given
# Wild type FGFR2, sequence (P21802 22-821): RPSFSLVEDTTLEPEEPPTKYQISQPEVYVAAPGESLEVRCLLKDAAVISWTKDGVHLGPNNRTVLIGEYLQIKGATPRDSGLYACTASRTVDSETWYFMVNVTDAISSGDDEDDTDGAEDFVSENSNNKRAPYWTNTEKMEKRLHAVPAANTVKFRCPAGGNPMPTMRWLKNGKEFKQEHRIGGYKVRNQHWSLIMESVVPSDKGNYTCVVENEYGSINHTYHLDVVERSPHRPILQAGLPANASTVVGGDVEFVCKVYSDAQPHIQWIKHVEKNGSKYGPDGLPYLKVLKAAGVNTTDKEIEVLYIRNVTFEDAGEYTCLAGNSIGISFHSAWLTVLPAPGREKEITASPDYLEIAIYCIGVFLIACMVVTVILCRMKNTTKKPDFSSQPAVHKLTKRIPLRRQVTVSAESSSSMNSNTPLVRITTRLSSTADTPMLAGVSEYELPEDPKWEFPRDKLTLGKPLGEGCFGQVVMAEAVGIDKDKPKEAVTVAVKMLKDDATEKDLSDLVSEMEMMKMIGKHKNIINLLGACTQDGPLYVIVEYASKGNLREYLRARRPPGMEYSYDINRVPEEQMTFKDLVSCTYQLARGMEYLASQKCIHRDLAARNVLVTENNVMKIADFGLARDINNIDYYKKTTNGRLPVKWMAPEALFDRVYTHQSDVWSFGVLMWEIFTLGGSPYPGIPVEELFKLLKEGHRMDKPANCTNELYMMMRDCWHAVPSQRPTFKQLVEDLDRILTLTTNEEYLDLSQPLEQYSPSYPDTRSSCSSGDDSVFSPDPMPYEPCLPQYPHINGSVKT
row,Compound,IC50 [nM]
1,"C#CC(=O)N1C[C@@H](n2nc(C#Cc3cc4ncn(C5CC5)c4cc3F)c(C(N)=O)c2NC)C[C@@H]1CO [Example 198, 3-[2-(1-Cyclopropyl-6-fluoro-1,3-benzodiazol-5-yl)ethynyl]-1-[(3S,5R)-5-(hydroxymethyl)-1-(prop-2-ynoyl)pyrrolidin-3-yl]-5-(methylamino)pyrazole-4-carboxamide]",< 100

# Same assay, conditions: wild type FGFR2 0.06 nM, 100 μM ATP, 80 minutes at room temperature; class symbols
row,Compound,IC50 [nM]
1,"C=CC(=O)N1C[C@@H](n2nc(C#Cc3c(F)cc4c(ncn4C4CC4)c3F)c(C(N)=O)c2N)C[C@@H]1COC [Example 189, 5-amino-3-[2-(1-cyclopropyl-4,6-difluoro-1,3-benzodiazol-5-yl)ethynyl]-1-[(3S,5R)-5-(methoxymethyl)-1-(prop-2-enoyl)pyrrolidin-3-yl]pyrazole-4-carboxamide]",≤ 100
2,"C=CC(=O)N1CC[C@H](n2nc(C#Cc3c(F)cc4c(ncn4C4CC4)c3F)c(C(N)=O)c2N)C1 [Example 190, 5-Amino-3-[2-(1-cyclopropyl-4,6-difluoro-1,3-benzodiazol-5-yl)ethynyl]-1-[(3S)-1-(prop-2-enoyl)pyrrolidin-3-yl]pyrazole-4-carboxamide]",≤ 100
3,"C=CC(=O)N1CC(n2nc(C#Cc3cc4ncn(CC)c4cc3Cl)c(C(N)=O)c2NC)C1 [Example 192, 3-[2-(6-chloro-1-ethyl-1,3-benzodiazol-5-yl)ethynyl]-5-(methylamino)-1-[1-(prop-2-enoyl)azetidin-3-yl]pyrazole-4-carboxamide]",≤ 100
4,"C=CC(=O)N1CC(n2nc(C#Cc3c(F)cc4c(ncn4C4CC4)c3F)c(C(N)=O)c2NC)C1 [Example 193, 3-[2-(1-Cyclopropyl-4,6-difluoro-1,3-benzodiazol-5-yl)ethynyl]-5-(methylamino)-1-[1-(prop-2-enoyl)azetidin-3-yl]pyrazole-4-carboxamide]",≤ 100
5,"C=CC(=O)N1C[C@@H](n2nc(C#Cc3cc4ncn(C5CC5)c4cc3Cl)c(C(N)=O)c2N)C[C@@H]1CO [Example 199, 5-Amino-3-[2-(6-chloro-1-cyclopropyl-1,3-benzodiazol-5-yl)ethynyl]-1-[(3S,5R)-5-(hydroxymethyl)-1-(prop-2-enoyl)pyrrolidin-3-yl]pyrazole-4-carboxamide]",≤ 100
6,"C=CC(=O)N1C[C@@H](n2nc(C#Cc3cc4ncn(C5CC5)c4cc3Cl)c(C(N)=O)c2N)C[C@@H]1COC [Example 200, 5-Amino-3-[2-(6-chloro-1-cyclopropyl-1,3-benzodiazol-5-yl)ethynyl]-1-[(3S,5R)-5-(methoxymethyl)-1-(prop-2-enoyl)pyrrolidin-3-yl]pyrazole-4-carboxamide]",≤ 100
7,"C=CC(=O)N1C[C@@H](n2nc(C#Cc3c(F)cc4c(ncn4C4CC4)c3F)c(C(N)=O)c2N)C[C@@H]1CO [Example 201, 5-Amino-3-[2-(1-cyclopropyl-4,6-difluoro-1,3-benzodiazol-5-yl)ethynyl]-[(3S,5R)-5-(hydroxymethyl)-1-(prop-2-enoyl)pyrrolidin-3-yl]pyrazole-4-carboxamide]",≤ 100
8,"C=CC(=O)N1CC(n2nc(C#Cc3cc4ncn(C5CC5)c4cc3F)c(C(N)=O)c2N)C1 [Example 202, 5-Amino-3-[2-(1-cyclopropyl-6-fluoro-1,3-benzodiazol-5-yl)ethynyl]-1-[1-(prop-2-enoyl)azetidin-3-yl]pyrazole-4-carboxamide]",≤ 100
9,"CNc1c(C(N)=O)c(C#Cc2cc3ncn(C4CC4)c3cc2F)nn1C1CN(C(=O)/C=C/CN(C)C)C1 [Example 204, 3-[2-(1-Cyclopropyl-6-fluoro-1,3-benzodiazol-5-yl)ethynyl]-1-{1-[(2E)-4-(dimethylamino)but-2-enoyl]azetidin-3-yl}-5-(methylamino)pyrazole-4-carboxamide]",100 to 1000
10,"C=CC(=O)N1C[C@@H](n2nc(C#Cc3cc4ncn(C5CC5)c4cc3F)c(C(N)=O)c2NCC)C[C@@H]1COC [Example 205, 1-((3S,5R)-1-Acryloyl-5-(methoxymethyl)pyrrolidin-3-yl)-3-((1-cyclopropyl-6-fluoro-1H-benzo[d]imidazol-5-yl)ethynyl)-5-(ethylamino)-1H-pyrazole-4-carboxamide]",≤ 100
11,"C=CC(=O)N1CC(n2nc(C#Cc3cc4ncn(C5CC5)c4cc3Cl)c(C(N)=O)c2N)C1 [Example 208, 5-Amino-3-[2-(6-chloro-1-cyclopropyl-1,3-benzodiazol-5-yl)ethynyl]-1-[1-(prop-2-enoyl)azetidin-3-yl]pyrazole-4-carboxamide]",≤ 100
12,"C=CC(=O)N1CC(n2nc(C#Cc3cc4ncn(CC)c4cc3Cl)c(C(N)=O)c2N)C1 [Example 209, 5-Amino-3-[2-(6-chloro-1-ethyl-1,3-benzodiazol-5-yl)ethynyl]-1-[1-(prop-2-enoyl)azetidin-3-yl]pyrazole-4-carboxamide]",≤ 100
13,"C=CC(=O)N1CC(n2nc(C#Cc3c(F)cc4c(ncn4C4CC4)c3F)c(C(N)=O)c2N)C1 [Example 210, 5-Amino-3-[2-(1-cyclopropyl-4,6-difluoro-1,3-benzodiazol-5-yl)ethynyl]-1-[1-(prop-2-enoyl)azetidin-3-yl]pyrazole-4-carboxamide]",≤ 100
14,"C=CC(=O)N1C[C@@H](n2nc(C#Cc3cc4nc(C)n(C5CC5)c4cc3Cl)c(C(N)=O)c2N)C[C@@H]1COC [Example 214, 5-Amino-3-[2-(6-chloro-1-cyclopropyl-2-methyl-1,3-benzodiazol-5-yl)ethynyl]-1-[(3S,5R)-5-(methoxymethyl)-1-(prop-2-enoyl)pyrrolidin-3-yl]pyrazole-4-carboxamide]",≤ 100
15,"C=CC(=O)N1C[C@@H](n2nc(C#Cc3cc4nc(C)n(C5CC5)c4cc3Cl)c(C(N)=O)c2NC)C[C@@H]1[C@@H](C)O [Example 220, 1-((3S,5R)-1-Acryloyl-5-((R)-1-hydroxyethyl)pyrrolidin-3-yl)-3-((6-chloro-1-cyclopropyl-2-methyl-1H-benzo[d]imidazol-5-yl)ethynyl)-5-(methylamino)-1H-pyrazole-4-carboxamide]",≤ 100

# More lines, now with the values ahead:
row,IC50 [nM],Compound
1,≤ 100,"CC#CC(=O)N1C[C@@H](n2nc(C#Cc3c(F)cc4c(ncn4C4CC4)c3F)c(C(N)=O)c2NC)C[C@@H]1COC [Example 185, 1-[(3S,5R)-1-(But-2-ynoyl)-5-(methoxymethyl)pyrrolidin-3-yl]-3-[2-(1-cyclopropyl-4,6-difluoro-1,3-benzodiazol-5-yl)ethynyl]-5-(methylamino)pyrazole-4-carboxamide]"
2,≤ 100,"C=CC(=O)N1CC[C@H](n2nc(C#Cc3c(F)cc4c(ncn4C4CC4)c3F)c(C(N)=O)c2NC)C1 [Example 186, 3-[2-(1-Cyclopropyl-4,6-difluoro-1,3-benzodiazol-5-yl)ethynyl]-5-(methylamino)-1-[(3S)-1-(prop-2-enoyl)pyrrolidin-3-yl]pyrazole-4-carboxamide]"
3,≤ 100,"C=CC(=O)N1C[C@@H](n2nc(C#Cc3cc4ncn(CC)c4cc3Cl)c(C(N)=O)c2NC)C[C@@H]1CO [Example 191, 3-[2-(6-Chloro-1-ethyl-1,3-benzodiazol-5-yl)ethynyl]-1-[(3S,5R)-5-(hydroxymethyl)-1-(prop-2-enoyl)pyrrolidin-3-yl]-5-(methylamino)pyrazole-4-carboxamide]"
4,≤ 100,"C=CC(=O)N1C[C@@H](n2nc(C#Cc3cc4ncn(CC)c4cc3Cl)c(C(N)=O)c2N)C[C@@H]1CO [Example 194, 5-Amino-3-[2-(6-chloro-1-ethyl-1,3-benzodiazol-5-yl)ethynyl]-1-[(3S,5R)-5-(hydroxymethyl)-1-(prop-2-enoyl)pyrrolidin-3-yl]pyrazole-4-carboxamide]"
5,≤ 100,"C=CC(=O)N1C[C@@H](n2nc(C#Cc3cc4ncn(CC)c4cc3Cl)c(C(N)=O)c2N)C[C@@H]1COC [Example 196, 5-Amino-3-[2-(6-chloro-1-ethyl-1,3-benzodiazol-5-yl)ethynyl]-1-[(3S,5R)-5-(methoxymethyl)-1-(prop-2-enoyl)pyrrolidin-3-yl]pyrazole-4-carboxamide]"
6,≤ 100,"CNc1c(C(N)=O)c(C#Cc2cc3ncn(C4CC4)c3cc2F)nn1[C@H]1C[C@H](COC)N(C(=O)C#CC(C)(C)O)C1 [Example 203, 3-((1-Cyclopropyl-6-fluoro-1H-benzo[d]imidazol-5-yl)ethynyl)-1-((3S,5R)-1-(4-hydroxy-4-methylpent-2-ynoyl)-5-(methoxymethyl)pyrrolidin-3-yl)-5-(methylamino)-1H-pyrazole-4-carboxamide]"
7,≤ 100,"C=CC(=O)N1C[C@@H](n2nc(C#Cc3cc4nc(C)n(C5CC5)c4cc3F)c(C(N)=O)c2N)C[C@@H]1COC [Example 206, 5-Amino-3-[2-(1-cyclopropyl-6-fluoro-2-methyl-1,3-benzodiazol-5-yl)ethynyl]-1-[(3S,5R)-5-(methoxymethyl)-1-(prop-2-enoyl)pyrrolidin-3-yl]pyrazole-4-carboxamide]"
8,≤ 100,"C=CC(=O)N1C[C@@H](n2nc(C#Cc3cc4ncn(C5CC5)c4cc3F)c(C(N)=O)c2N)C[C@@H]1CO [Example 207, 5-Amino-3-[2-(1-cyclopropyl-6-fluoro-1,3-benzodiazol-5-yl)ethynyl]-1-[(3S,5R)-5-(hydroxymethyl)-1-(prop-2-enoyl)pyrrolidin-3-yl]pyrazole-4-carboxamide]"
9,≤ 100,"C=CC(=O)N1C[C@@H](n2nc(C#Cc3cc4ncn(C5CC5)c4cc3F)c(C(N)=O)c2N)C[C@@H]1COC(F)F [Example 211, 5-Amino-3-[2-(1-cyclopropyl-6-fluoro-1,3-benzodiazol-5-yl)ethynyl]-1-[(3S,5R)-5-[(difluoromethoxy)methyl]-1-(prop-2-enoyl)pyrrolidin-3-yl]pyrazole-4-carboxamide]"
10,≤ 100,"C=CC(=O)N1C[C@@H](n2nc(C#Cc3ccc4c(c3)ncn4C3CC3)c(C(N)=O)c2N)C[C@@H]1COC(F)F [Example 212, 5-Amino-3-[2-(1-cyclopropyl-1,3-benzodiazol-5-yl)ethynyl]-1-[(3S,5R)-5-[(difluoromethoxy)methyl]-1-(prop-2-enoyl)pyrrolidin-3-yl]pyrazole-4-carboxamide]"
11,≤ 100,"C=CC(=O)N1C[C@@H](n2nc(C#Cc3c(F)cc4c(ncn4C4CC4)c3F)c(C(N)=O)c2N)C[C@@H]1COC(F)F [Example 215, 5-Amino-3-[2-(1-cyclopropyl-4,6-difluoro-1,3-benzodiazol-5-yl)ethynyl]-1-[(3S,5R)-5-[(difluoromethoxy)methyl]-1-(prop-2-enoyl)pyrrolidin-3-yl]pyrazole-4-carboxamide]"
